From ChEMBL document CHEMBL1129948, “Synthesis and anti-trypanosomal activity of various 8-aza-7-deaza-5'noraristeromycin derivatives” (J Med Chem, 1997)
Activity calls are given as the source filed them. The rule behind the calls is not given here.

Columns and labels:
Vero = experiment: Cytotoxic activity of compound against Vero cell line; No toxicity; type: functional, cell-based; conditions: Chlorocebus sabaeus
Trypanosoma brucei [1] = experiment: (§1) Inhibition of growth of Trypanosoma uM concentration; type: functional, organism-based
HeLa = experiment: Cytotoxic activity of compound against HeLa cell line; No toxicity; type: functional, cell-based; conditions: Homo sapiens
Trypanosoma brucei [2] = experiment: as §1; type: functional, organism-based; remark: listed apart in the source
E6SM = experiment: Cytotoxic activity of compound against E6SM cell line; No toxicity; type: functional, cell-based; conditions: Homo sapiens
Trypanosoma brucei [3] = experiment: as §1; type: functional, organism-based; remark: listed apart in the source
HEL = experiment: Cytotoxic activity of compound against HEL cell line; No toxicity; type: functional, cell-based; conditions: Homo sapiens
Trypanosoma brucei [4] = experiment: (§2) Inhibition of growth of Trypanosoma uM); type: functional, organism-based
Trypanosoma brucei [5] = experiment: as §2; type: functional, organism-based; remark: listed apart in the source
Trypanosoma brucei [6] = experiment: as §2; type: functional, organism-based; remark: listed apart in the source
Trypanosoma brucei [7] = experiment: as §2; type: functional, organism-based; remark: listed apart in the source
Trypanosoma brucei [8] = experiment: as §1; type: functional, organism-based; remark: listed apart in the source
Trypanosoma brucei [9] = experiment: as §1; type: functional
Trypanosoma brucei [10] = experiment: as §1; type: functional; remark: listed apart in the source

Row | SMILES | Cytotoxic activity (Vero) | IC50 (Trypanosoma brucei [1]) [µM] | Cytotoxic activity (HeLa) | IC50 (Trypanosoma brucei [2]) [µM] | Cytotoxic activity (E6SM) | IC50 (Trypanosoma brucei [3]) [µM] | Cytotoxic activity (HEL) | IC50 (Trypanosoma brucei [4]) [µM] | IC50 (Trypanosoma brucei [5]) [µM] | IC50 (Trypanosoma brucei [6]) [µM] | IC50 (Trypanosoma brucei [7]) [µM] | IC50 (Trypanosoma brucei [8]) [µM] | Inhibition (Trypanosoma brucei [9]) [%] | Inhibition (Trypanosoma brucei [10]) [%]
1 | C[C@H]1C[C@@H](n2ncc3c(N)ncnc32)[C@H](O)[C@@H]1O | No toxicity | 12.2 | No toxicity | 16.8 | No toxicity | 14 | No toxicity |  |  |  |  |  |  | 
2 | Nc1ncnc2c1cnn2[C@@H]1CC[C@@H](O)[C@H]1O | No toxicity |  | No toxicity |  | No toxicity |  | No toxicity | > 100 | > 100 | > 100 | > 100 |  |  | 
3 | Nc1ncnc2c1cnn2[C@@H]1C=C[C@H](O)C1 | No toxicity |  | No toxicity |  | No toxicity |  | No toxicity |  | > 100 |  | > 100 |  |  | 
4 | Nc1ncnc2c1cnn2[C@@H]1C=C[C@@H](O)[C@H]1O | No toxicity |  | No toxicity |  | No toxicity |  | No toxicity | > 100 | > 100 | > 100 | > 100 |  |  | 
5 | Nc1ncnc2c1cnn2[C@H]1C=C[C@H](O)[C@@H]1O | No toxicity | > 100 | No toxicity | > 100 | No toxicity |  | No toxicity |  |  |  |  |  |  | 
6 | Nc1ncnc2c1ccn2[C@H]1C[C@@H](O)[C@H](O)[C@@H]1O | inactive | 0.85 | Non-toxic |  | inactive | 1.55 | inactive |  |  |  |  | 5.3 |  | 
7 | Nc1ncnc2c1cnn2[C@H]1C=C[C@@H](O)C1 | No toxicity |  | No toxicity |  | No toxicity |  | No toxicity | > 100 | > 100 | > 100 | > 100 |  |  | 
8 | Nc1ncnc2c1cnn2[C@H]1C[C@@H](O)[C@H](O)[C@@H]1O | No toxicity | 53 | No toxicity | 44 | No toxicity | 67 | No toxicity |  |  |  |  | 72 |  | 
9 | Nc1ncnc2c1cnn2[C@@H]1C[C@H](O)[C@@H](O)[C@H]1O | No toxicity |  | No toxicity |  | No toxicity |  | No toxicity |  | > 100 |  | > 100 |  |  | 
10 | C[C@@H]1C[C@H](n2ncc3c(N)ncnc32)[C@@H](O)[C@H]1O | No toxicity |  | No toxicity |  | No toxicity |  | No toxicity | > 100 | > 100 | > 100 | > 100 |  |  | 
11 | Nc1ncnc2c1cnn2[C@H]1CC[C@H](O)[C@@H]1O | No toxicity |  | No toxicity |  | No toxicity |  | No toxicity |  |  |  |  |  | 23 | 37
